In publication PMC4105567, “Aurora Kinases as Druggable Targets in Pediatric Leukemia: Heterogeneity in Target Modulation Activities and Cytotoxicity by Diverse Novel Therapeutic Agents” (PLoS ONE, 2014):
Where two headings read alike, the source gives them in different places.

Columns and labels:
Nalm6 B-ALL cell line = test: Cytotoxicity assay, Nalm6; format: cell-based, human; details: Homo sapiens, NALM-6, 96 h, four days in culture, Alamar blue assay or automated microscopy, ± SD, three experiments
Protocol: (§1) Cell lines were cultured in Opti-MEM medium (Gibco, Life Technologies Corporation, Burlington, Ontario) supplemented with 10% heat inactivated fetal bovine serum (FBS) (Gibco), 100 units/ml penicillin and 100 units/ml streptomycin (Gibco) and 0.05 mM 2-mercaptoethanol (Sigma-Aldrich, Oakville, Ontario) in T25 flasks (Nalge Nunc, Rochester, New York) or T75 flasks (Corning Incorporated, Corning, New York). All cell cultures were maintained at 37°C in a humidified incubator with 5% CO2.
(§2) For cytotoxicity profiling of Aurora kinase inhibitors against leukemia cell lines, inhibitors or vehicle control (DMSO, Sigma-Aldrich) were diluted in 100 µl of Opti-MEM per well in 96 well plates (Grenier Bio-One, Monroe, North Carolina) in triplicate at final concentrations ranging from 1×10^−6 to 10 µM. 1×10^4 cells per well were seeded and plates were incubated for 4 days. Following incubation for 4 days, cell survival was quantified by Alamar blue assay (Invitrogen) or automated inverted microscopy using the Celigo Cell Cytometer (Cyntellect, San Diego, California). […] During this period of incubation, the absorbance at 570–620 nm was measured (Opsys MR Plate Reader, Dynex Technologies, Chantilly, Virginia) at various time points, depending on the cell line or sample. Percent survival was calculated by comparing the absorbance ratio of the test well to the control well multiplied by 100%, as indicated in the following formula: […]
(§3) For automated inverted microscopy, the number of cells in each well was determined using the direct cell counting application as described previously. Briefly, following adjustment of image acquisition settings for bright-field imaging, the wells containing cells and appropriate dilutions of inhibitors were individually scanned. Based on these images, analysis parameters, including intensity threshold and cell diameter, were modified for optimal inclusion of viable cells in treated and control wells. These parameters were applied for subsequent replicates involving the same leukemia cell line or sample. The percent survival was then calculated as a ratio of the number of cells in treated wells to the number of cells in control wells multiplied by 100%. Given that Aurora kinase inhibitors interfere with cytokinesis, cells that are committed to death may still contain enlarging but intact cytoplasmic content before the eventual loss of cytoplasmic membrane integrity. The accuracy of Alamar blue assay may be, in theory, affected by the timing of these events.

[1] = tested on: Patient #3 AML/CML primary leukemia cells; test: Cytotoxicity assay, primary sample Patient #3; format: cell-based, human; details: Homo sapiens, 96 h, four days in culture, Alamar blue assay or automated microscopy, one complete study
Protocol: (§4) These include B-ALL (Patient #1), relapsed AML (Patient #2), AML/CML (Patient #3), infant ALL (Patient #4), and initial ALL presenting with secondary AML (Patient #5). […] The diluted sample was then layered on a Ficoll-Paque (GE Healthcare, Piscataway, New Jersey) gradient at a 1∶2 ratio of Ficoll to diluted sample. Samples were then centrifuged 1800 rpm for 20 minutes at room temperature. The buffy coat was removed with a pipette and transferred to a new centrifuge tube and diluted with PBS. After an additional centrifugation at 1200 rpm, the white blood cell pellet was washed with PBS and centrifuged one last time. Cells were re-suspended in Opti-MEM and viable cells were counted using trypan blue (Invitrogen, Life Technologies Corporation, Burlington, Ontario) exclusion on a haemocytometer. An identical protocol was followed for the isolation of white blood cells, referred to as “normal lymphocytes” in the following paragraphs, from healthy volunteers. Samples grown in culture for up to six months were cultured in Opti-MEM medium supplemented with 10% heat inactivated FBS, penicillin/streptomycin and 2-mercaptoethanol.
as §2, §3

[2] = tested on: normal cells versus leukemia cell lines; test: Comparison of cytotoxicity IC50 values, normal cells versus leukemia cell lines; format: cell-based, human; details: normal lymphocytes and bone marrow stroma versus leukemia cell lines of Table 2
Protocol: as §2, §3

SEM B-ALL cell line = test: Cytotoxicity assay, SEM; format: cell-based; details: Homo sapiens, 96 h, four days in culture, Alamar blue assay or automated microscopy, ± SD, three experiments
Protocol: as §1, §2, §3

C1 B-ALL cell line = test: Cytotoxicity assay, C1; format: cell-based, human; details: Homo sapiens, 96 h, four days in culture, Alamar blue assay or automated microscopy, ± SD, three experiments
Protocol: as §1, §2, §3

Molt-3 T-ALL cell line = test: Cytotoxicity assay, Molt-3; format: cell-based, human; details: Homo sapiens, 96 h; T-ALL cell line Molt-3; four days in culture; Alamar blue assay or automated microscopy; ± SD, three experiments
Protocol: as §1, §2, §3

HL-60 RA APML cell line = test: Cytotoxicity assay, HL-60 RA; format: cell-based, human; details: Homo sapiens, 96 h; APML cell line HL-60 RA; four days in culture; Alamar blue assay or automated microscopy; ± SD, three experiments
Protocol: as §1, §2, §3

TIB-202 AML cell line = test: Cytotoxicity assay, TIB-202; format: cell-based, human; details: Homo sapiens, 96 h; AML cell line TIB-202; four days in culture; Alamar blue assay or automated microscopy; ± SD, three experiments
Protocol: as §1, §2, §3

[3] = tested on: Patient #1 B-ALL primary leukemia cells; test: Cytotoxicity assay, primary sample Patient #1; format: cell-based, human; details: Homo sapiens, 96 h, four days in culture, Alamar blue assay or automated microscopy, one complete study
Protocol: as §4, §2, §3

CEM T-ALL cell line = test: Cytotoxicity assay, CEM; format: cell-based, human; details: Homo sapiens, 96 h, four days in culture, Alamar blue assay or automated microscopy, ± SD, three experiments
Protocol: as §1, §2, §3

Aurora-C = details: read-out: Targets (IC50 Value): Aurora-C; literature values; ref [10],[40],[44]–[64] as listed per inhibitor in Table 1; cited from earlier work
[4] = tested on: Patient #2 relapsed AML primary leukemia cells; test: Cytotoxicity assay, primary sample Patient #2; format: cell-based, human; details: Homo sapiens, 96 h, four days in culture, Alamar blue assay or automated microscopy, one complete study
Protocol: as §4, §2, §3

Normal Lymphocytes = test: Cytotoxicity assay, normal lymphocytes; format: cell-based, human; details: Homo sapiens, Lymphocyte, 96 h; normal lymphocytes (control for non-leukemia cytotoxicity); four days in culture; ± SD, three experiments
Protocol: as §4, §2, §3

UOCB1 B-ALL cell line = test: Cytotoxicity assay, UOCB1; format: cell-based, human; details: Homo sapiens, UoC-B1, 96 h, four days in culture, Alamar blue assay or automated microscopy, ± SD, three experiments
Protocol: as §1, §2, §3

HL-60 APML cell line = test: Cytotoxicity assay, HL-60; format: cell-based, human; details: Homo sapiens, 96 h; APML cell line HL-60; four days in culture; Alamar blue assay or automated microscopy; ± SD, three experiments
Protocol: as §1, §2, §3

MV4-11 AML cell line = test: Cytotoxicity assay, MV4-11; format: cell-based, human; details: Homo sapiens, 96 h; AML cell line MV4-11; four days in culture; Alamar blue assay or automated microscopy; ± SD, three experiments
Protocol: as §1, §2, §3

B1 B-ALL cell line = test: Cytotoxicity assay, B1; format: cell-based, human; details: Homo sapiens, 96 h, four days in culture, Alamar blue assay or automated microscopy, ± SD, three experiments
Protocol: as §1, §2, §3

[5] = tested on: Patient #4 infant leukemia primary cells; test: Cytotoxicity assay, primary sample Patient #4; format: cell-based, human; details: Homo sapiens, 96 h, four days in culture, Alamar blue assay or automated microscopy, one complete study
Protocol: as §4, §2, §3

Bone Marrow Stroma = test: Cytotoxicity assay, bone marrow stroma; format: cell-based, human; details: Homo sapiens, 96 h; bone marrow stroma (control for non-leukemia cytotoxicity); four days in culture; ± SD, three experiments
Protocol: as §2, §3

[6] = tested on: Patient #5 ALL/AML primary leukemia cells; test: Cytotoxicity assay, primary sample Patient #5; format: cell-based, human; details: Homo sapiens, 96 h, read-out: IC50, Patient #5 ALL/AML
Protocol: as §4, §2, §3

NB4 APML cell line = test: Cytotoxicity assay, NB4; format: cell-based, human; details: Homo sapiens, 96 h, four days in culture, Alamar blue assay or automated microscopy, ± SD, three experiments
Protocol: as §1, §2, §3

Molm13 AML cell line = test: Cytotoxicity assay, Molm13; format: cell-based, human; details: Homo sapiens, MOLM-13, 96 h, four days in culture, Alamar blue assay or automated microscopy, ± SD, three experiments
Protocol: as §1, §2, §3

KOPN8 B-ALL cell line = test: Cytotoxicity assay, KOPN8; format: cell-based, human; details: Homo sapiens, KOPN-8, 96 h, four days in culture, Alamar blue assay or automated microscopy, ± SD, three experiments
Protocol: as §1, §2, §3

Aurora-B = tested on: Aurora-B; parameters: method as in earlier work; details: literature values; ref [10],[22],[27],[40],[44]–[64] as listed per inhibitor in Table 1; read-out: Targets (IC50 Value): Aurora-B; cited from earlier work
[7] = primary sample, four days in culture, Alamar blue assay or automated microscopy, one complete study

Compound	IC50 (Nalm6 B-ALL cell line) [nM]	IC50 [1] [nM]	IC50 (SEM B-ALL cell line) [nM]	IC50 (C1 B-ALL cell line) [nM]	IC50 (Molt-3 T-ALL cell line) [nM]	IC50 (HL-60 RA APML cell line) [nM]	IC50 (TIB-202 AML cell line) [nM]	IC50 [3] [nM]	IC50 (CEM T-ALL cell line) [nM]	IC50 (Aurora-C) [nM]	IC50 [4] [nM]	IC50 (Normal Lymphocytes) [nM]	IC50 (UOCB1 B-ALL cell line) [nM]	IC50 (HL-60 APML cell line) [nM]	IC50 (MV4-11 AML cell line) [nM]	IC50 (B1 B-ALL cell line) [nM]	IC50 [5] [nM]	IC50 (Bone Marrow Stroma) [nM]	IC50 (NB4 APML cell line) [nM]	IC50 (Molm13 AML cell line) [nM]	other results
Cc1nc(N)sc1-c1ccnc(Nc2ccc(N3CCOCC3)cc2)n1 [CYC116]	500 ± 300	> 10000	100 ± 4	200 ± 100	70 ± 20	300 ± 80	600 ± 50	10	70 ± 9	69	70	> 10000	200 ± 90	7000 ± 3000	5 ± 4	1000 ± 600	> 10000	5000 ± 2000	3000 ± 2000	400 ± 200	IC50 values for the normal cells compared with IC50 values for the leukemia cell lines (potential therapeutic window) [2]: lower than the IC50 values for the normal cells, but not as pronounced; IC50 [6, 7]: 0.4 nM; IC50 (KOPN8 B-ALL cell line): 1000 ± 600 nM
CCc1cccc(CC)c1NC(=O)N1Cc2n[nH]c(NC(=O)c3ccc(N4CCN(C)CC4)cc3)c2C1 [PHA-680632]	400 ± 200	> 10000	800 ± 300	100 ± 50	100 ± 60	90 ± 10	6000 ± 1000	10	300 ± 100	120	2000	> 10000	1000 ± 500	6000 ± 2000	300 ± 200	5000 ± 900	> 10000	2000 ± 900	900 ± 90	30 ± 20	IC50 values for the normal cells compared with IC50 values for the leukemia cell lines (potential therapeutic window) [2]: lower than the IC50 values for the normal cells, but not as pronounced; IC50 (Aurora-B): 135 nM; IC50 [6]: 0.8 nM; IC50 (KOPN8 B-ALL cell line): 60 ± 20 nM
CO[C@@H](C(=O)N1Cc2n[nH]c(NC(=O)c3ccc(N4CCN(C)CC4)cc3)c2C1)c1ccccc1 [PHA-739358]	9 ± 0.9	> 10000	80 ± 20	8 ± 1	4 ± 2	7 ± 1	2000 ± 900	0.9	10 ± 6	61	300	> 10000	60 ± 20	900 ± 100	3 ± 2	2000 ± 900	> 10000	3000 ± 1000	200 ± 100	6 ± 1	IC50 values for the normal cells compared with IC50 values for the leukemia cell lines (potential therapeutic window) [2]: lower than the IC50 values for the normal cells, but not as pronounced; IC50 [6, 7]: 1 nM; IC50 (KOPN8 B-ALL cell line): 2 ± 1 nM
O=C(Nc1cccc(Cl)c1)Nc1ncc(CCNc2ncnc3ccsc23)s1 [SNS-314]	< 0.001	4000	< 0.001	< 0.001	< 0.001	< 0.001	< 0.001	< 0.001	< 0.001	3	0.5	4000 ± 2000	< 0.001	0.02	< 0.001	< 0.001	8000	> 10000	6 ± 4	< 0.001	IC50 [6]: < 0.001 nM; IC50 (KOPN8 B-ALL cell line): < 0.001 nM
